Test results published in patent US8198405B2, “Stabilized alpha helical peptides and uses thereof” (Dana-Farber Cancer Institute, Inc., priority 2003, dated 2012).
Blank lines part the entries; values can stand above or below the molecule they belong to. Where a SMILES comes first, the peptide text is derived from it. [ ]: non-standard residue; d: D form. The star is where a group is joined. FITC = O=C1OC2(c3ccc(O)cc3Oc3cc(O)ccc32)c2ccc(NC(=S)*)cc21; Nle = CCCC[C@H](N)C(=O)O; βAla = NCCC(=O)O

Assays:
[1] = target: T1, trypsin (Bos taurus, UniProt P00760); assay: In vitro trypsin proteolysis (trypsin agarose); assay type: in vitro ADME; details: first order rate constant, triplicate
T1 sequence (P00760 24-246): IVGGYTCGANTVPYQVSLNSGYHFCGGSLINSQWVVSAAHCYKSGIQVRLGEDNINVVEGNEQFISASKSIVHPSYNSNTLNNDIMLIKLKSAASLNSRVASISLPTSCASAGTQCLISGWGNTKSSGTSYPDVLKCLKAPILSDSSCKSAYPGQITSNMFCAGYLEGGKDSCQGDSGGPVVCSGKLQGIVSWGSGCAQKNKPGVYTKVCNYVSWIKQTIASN
Method: The amide bond of the peptide backbone is susceptible to hydrolysis by proteases, thereby rendering peptidic compounds vulnerable to rapid degradation in vivo. Peptide helix formation, however, buries the amide backbone and therefore shields it from proteolytic cleavage. […] SAHB3BIDA and unmodified peptide were incubated with trypsin agarose and the reactions quenched at various time points by centrifugation and subsequent HPLC injection to quantitate the residual substrate by ultraviolet absorption at 280 nm. […] Reactions were quenched by tabletop centrifugation at high speed; remaining substrate in the isolated supernatant was quantified by HPLC-based peak detection at 220 nm.

[2] = system: REH, MV4; 11, and SEMK2 cell lines; assay: Apoptosis induction assays; assay type: cell-based
[3] = system: RS4;11
[4] = system: SEMK2-M1 leukemia cells; assay: SEMK2 leukemia in vivo, total body luminescence
[5] = target: T2, BAX (Homo sapiens, UniProt Q07812); assay: Fluorescence polarization direct binding assay; details: full-length BAX
T2 construct: Full-length BAX protein was prepared as previously described (Suzuki et al, Cell, 103:645); made in house

[6] = system: purified mouse liver mitochondria; assay: Cytochrome c release assay (ELISA), wild-type mitochondria; assay type: biochemical
Method: (§1) In order to assess the biological activity of SAHB3BID compounds in vitro, cytochrome c release assays were performed using purified mouse liver mitochondria. Mitochondria (0.5 mg/mL) were incubated for 40 minutes with 1 μM and 100 nM of SAHB3BID compounds and then supernatants and mitochondrial fractions isolated and subjected to cytochrome c ELISA assay. Background cytochrome c release (10-15%) was subtracted from total release for each sample, and the percent actual cytochrome c release was determined (FIG. 12). […] In each case, except for the double cross-linked SAHB3BIDE (which may lack critical amino acids for biological activity or, in this case, be overly constrained by the dual cross-links), there is approximately a doubling of cytochrome c release in response to 1 μM SAHB3BID compounds compared to the unmodified peptide (FIG. 12a). […] BID mutants with defective BH3 domains can promote BAK-independent cytochrome c mobilization (Scorrano et al, Dev Cell, 2:55), and the highly hydrophobic BID helix 6 has been implicated in this activity (L. Scorrano, S. J. Korsmeyer, unpublished results).
Similar to the above experiment, mouse liver mitochondria from wild-type and Bak−/− mice were exposed to the compounds at various concentrations and assayed for cytochrome c release at 10 and 40 minute intervals. […] Thus, SAHB3BIDA and B display a 10-25 fold enhancement in cytochrome c release activity at the 40 minute time point.

[7] = system: BCL-XL; assay: 15N/1H HSQC NMR of 15N-labeled BCL-XL; assay type: binding; details: 1:1 complex, 0.1 mM
Method: Briefly, Escherichia coli BL21 (DE3) containing the plasmid encoding C-terminal deleted BCL-XL were cultured in M9-minimal medium containing ^15NH4Cl (Cambridge Isotope Laboratories) to generate uniformly ^15N-labeled protein. Recombinant proteins were isolated from bacteria. […] Two dimensional ^15N/^1H heteronuclear single-quantum spectra were recorded for the two complexes and analyzed for changes in resonance upon ligand binding.

[8] = system: Jurkat cells engineered to overexpress BCL-2; assay: Apoptosis by annexin V flow cytometry; assay type: cell-based
Method: Indeed, the pro-apoptotic effect of 10 uM SAHB3BIDA and B on “wild-type” Jurkats was abolished in the BCL-2 overexpressing cells. […] The observed pro-apoptotic effects are selectively abolished by gly to glu mutation of SAHB3BIDA and cellular overexpression of BCL-2, findings which underscore that SAHB3BID compounds function via the defined mitochondrial apoptosis pathway.

[9] = system: MV4;11
[10] = system: Jurkat
[11] = system: SEMK2
[12] = system: mouse liver mitochondria isolated from Bak-/- mice; assay: Cytochrome c release assay, Bak-/- mitochondria (BAK-independent release); assay type: biochemical; details: 1 μM, 40 minutes
Method: as §1
Similar to the above experiment, mouse liver mitochondria from wild-type and Bak−/− mice were exposed to the compounds at various concentrations and assayed for cytochrome c release at 10 and 40 minute intervals. […]

[13] = system: REH
[14] = target: T3, BCL-2 (Homo sapiens, UniProt P10415); assay: Fluorescence polarization direct binding assay
T3 construct: containing the plasmid encoding C-terminal deleted GST-BCL-2; made in house; host or cells: Escherichia coli BL21 (DE3)

[15] = 10 mg/kg FITC-conjugated peptide
[16] = target: T4, GST-BCL-2 (Homo sapiens, UniProt P10415); assay: Fluorescence polarization competitive binding (displacement of FITC-BID BH3)
T4 construct: containing the plasmid encoding C-terminal deleted GST-BCL-2; made in house; host or cells: Escherichia coli BL21 (DE3)

[17] = system: Jurkat T-cell leukemia cells; assay: Cellular uptake of FITC-peptides by FACS
[18] = system: Jurkat T-cell leukemia cells; assay: Confocal microscopy, intracellular localization; assay type: cell-based; details: fixed cells
Method: Confocal microscopy experiments were employed in order to determine the intracellular localization of SAHB3BIDA. Jurkat T-cell leukemia cells were incubated with FITC-labeled compounds as described above or with serum replacement at 4 hours followed by additional 16 hours incubation at 37° C., and after washing twice with PBS, were cytospun at 600 RPM for 5 minutes onto superfrost plus glass slides (Fisher). Cells were then fixed in 4% paraformaldehyde, washed with PBS, incubated with TO-PRO-3 iodide (100 nM) (Molecular Probes) to counterstain nuclei, treated with Vectashield mounting medium (Vector), and then imaged by confocal microscopy (BioRad 1024). For double labeling experiments, fixed cells were additionally incubated with primary antibody to TOM20, and rhodamine-conjugated secondary antibody prior to TOPRO-3 counterstaining. […] Treated Jurkats were washed twice and then resuspended in PBS and wet mount preparations analyzed with a BioRad 1024 (Beth Israel/Deaconess Center for Advanced Microscopy) or Zeiss LSM510 laser scanning confocal microscope (Children's Hospital Boston Imaging Core).

T4 sequence (P10415 1-218 limits assumed): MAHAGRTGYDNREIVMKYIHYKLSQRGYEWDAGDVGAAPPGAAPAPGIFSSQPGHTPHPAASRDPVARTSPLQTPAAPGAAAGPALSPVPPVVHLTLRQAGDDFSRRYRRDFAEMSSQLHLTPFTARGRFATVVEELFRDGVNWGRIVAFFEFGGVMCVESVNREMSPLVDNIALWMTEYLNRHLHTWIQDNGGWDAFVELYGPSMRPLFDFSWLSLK
T3 sequence (P10415 1-218 limits assumed): as above
T2 sequence (Q07812 whole entry): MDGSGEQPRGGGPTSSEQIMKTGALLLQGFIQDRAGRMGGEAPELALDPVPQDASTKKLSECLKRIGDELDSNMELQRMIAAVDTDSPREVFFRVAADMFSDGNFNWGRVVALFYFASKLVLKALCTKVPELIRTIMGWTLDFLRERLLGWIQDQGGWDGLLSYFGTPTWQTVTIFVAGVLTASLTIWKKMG

enhancement in trypsin resistance compared to the unmodified peptide [1]: 3.5 fold
IC50 [3]: 2700 nM
BAX binding, in words [5]: measurable binding
EC50 ([6]; 40 minutes): 310 nM
IC50 [9]: 4700 nM
IC50 [10]: 2200 nM
IC50 [11]: 1600 nM
IC50 [13]: 10200 nM
enhancement in BCL-2 binding affinity compared to unmodified BID BH3 peptide [14]: 6 fold
Kd ([14]; fluorescinated compounds 25 nM, GST-BCL2 25 nM-1000 nM (FIG. 11d)): 38.8 nM
percent of the input still measurable in serum ([15]; 22 hours post-injection): 13%
increase in displacement potency compared to unmodified BID BH3 peptide [16]: more than 13 fold
GST-BCL2 binding, in words ([16]; competition with FITC-labeled unmodified BID BH3): highest affinity binding
IC50 ([16]; read-out: IC50 for displacement of prebound FITC-BID BH3 from BCL-2): 62 nM
Molecule: CCCC[C@H](NC(=O)[C@]1(C)CCCC=CCCC[C@](C)(NC(=O)[C@H](C)NC(=O)[C@H](CC(C)C)NC(=O)[C@H](Cc2c[nH]cn2)NC(=O)[C@H](CCCNC(=N)N)NC(=O)[C@H](C)NC(=O)[C@@H](NC(=O)[C@H](CC(N)=O)NC(=O)[C@H](CCCNC(=N)N)NC(=O)[C@@H](NC(=O)[C@@H](NC(=O)[C@H](CC(=O)O)NC(=O)[C@H](CCC(=O)O)NC(C)=O)[C@@H](C)CC)[C@@H](C)CC)[C@@H](C)CC)C(=O)N[C@@H](C(C)C)C(=O)NCC(=O)N[C@@H](CC(=O)O)C(=O)N1)C(=O)N[C@@H](CC(=O)O)C(=O)N[C@@H](CCCNC(=N)N)C(=O)N[C@@H](CO)C(=O)N[C@H](C(=O)N[C@@H](Cc1c[nH]c2ccccc12)C(N)=O)[C@@H](C)CC [SAHB3BIDA]
apoptosis induction, in words [2]: specific apoptosis induction
tumor burden (total body luminescence) ([4]; 10 mg/kg intravenously on days 1, 2, 3, 5, 6, measured days 4 and 7): leukemic suppression
tumor burden (total body luminescence) ([4]; 10 mg/kg or 5 mg/kg intravenously on days 1, 2, 3, 6, 7, measured days 4 and 8): dose-dependent manner
cytochrome c release at ten-fold lower dosing, in words ([6]; 100 nM, 40 minutes): retain selective BAK-dependent cytochrome c release activity
cytochrome c release at 10 minutes, in words ([6]; 10 minutes): significant cytochrome c release
BCL-XL binding site, in words [7]: binds to the defined hydrophobic pocket of BCL-XL
pro-apoptotic effect in BCL-2 overexpressing cells ([8]; 10 uM): abolished
overcoming BCL-2 protection by dose escalation ([8]; dose response (FIG. 24)): can be overcome by dose escalation
BAK-independent cytochrome c release, in words [12]: BAK-independent cytochrome c release is observed

Molecule: CCCC[C@H](NC(=O)[C@H](CO)NC(=O)[C@H](CC(=O)O)NC(=O)CNC(=O)[C@@H](NC(=O)[C@H](CCC(N)=O)NC(=O)[C@H](C)NC(=O)[C@H](CC(C)C)NC(=O)[C@H](Cc1c[nH]cn1)NC(=O)[C@H](CCCNC(=N)N)NC(=O)[C@H](C)NC(=O)[C@@H](NC(=O)[C@H](CC(N)=O)NC(=O)[C@H](CCCNC(=N)N)NC(=O)[C@@H](NC(=O)[C@@H](NC(=O)[C@H](CC(=O)O)NC(=O)[C@H](CCC(=O)O)NC(=O)CCNC(=S)Nc1ccc2c(c1)C(=O)OC21c2ccc(O)cc2Oc2cc(O)ccc21)[C@@H](C)CC)[C@@H](C)CC)[C@@H](C)CC)C(C)C)C(=O)N[C@@H](CC(=O)O)C(=O)N[C@@H](CCCNC(=N)N)C(=O)N[C@@H](CO)C(=O)N[C@H](C(=O)N[C@@H](Cc1c[nH]c2ccccc12)C(N)=O)[C@@H](C)CC [FITC-BID BH3] ({FITC-βAla}-EDIIRNIARHLAQVGDS[Nle]DRSIW-NH2)
FITC labeling of cells at 4° C. and 37° C. [17]: did not label the cells at either temperature
FITC labeling with or without sodium azide and 2-deoxyglucose [17]: no labeling for either condition
intracellular distribution of fluorescence [18]: no cellular labeling

percent detectable in serum ([15]; one hour after injection): 12%
Molecule: CCCC[C@H](NC(=O)[C@H](CO)NC(=O)[C@H](CC(=O)O)NC(=O)CNC(=O)[C@@H](NC(=O)[C@H](CCC(N)=O)NC(=O)[C@H](C)NC(=O)[C@H](CC(C)C)NC(=O)[C@H](Cc1c[nH]cn1)NC(=O)[C@H](CCCNC(=N)N)NC(=O)[C@H](C)NC(=O)[C@@H](NC(=O)[C@H](CC(N)=O)NC(=O)[C@H](CCCNC(=N)N)NC(=O)[C@@H](NC(=O)[C@@H](NC(=O)[C@H](CC(=O)O)NC(=O)[C@@H](N)CCC(=O)O)[C@@H](C)CC)[C@@H](C)CC)[C@@H](C)CC)C(C)C)C(=O)N[C@@H](CC(=O)O)C(=O)N[C@@H](CCCNC(=N)N)C(=O)N[C@@H](CO)C(=O)N[C@H](C(=O)N[C@@H](Cc1c[nH]c2ccccc12)C(N)=O)[C@@H](C)CC [BID BH3, reference compound] (H-EDIIRNIARHLAQVGDS[Nle]DRSIW-NH2)

B1: myristolated BID protein: maximally activated myristolated BID protein (protein, UniProt P55957 1-195, looked up)
BH3-interacting domain death …: MDCEVNNGSSLRDECITNLLVFGFLQSCSDNSFRRELDALGHELPVLAPQWEGYDELQTDGNRSSHSRLGRIEADSESQEDIIRNIARHLAQVGDSMDRSIPPGLVNGLALQLRNTSRSEEDRNRDLATALEQLLQAYPRDMEKEKTMLVLALLLAKKVASHTPSLLRDVFHTTVNFINQNLRTYVRSLARNGMD
modifications: myristoylated
cytochrome c released ([6]; 30 nM): approximately 65%
